Source: patent publication US20090156577A1, “7-AMINO ALKYLIDENYL-HETEROCYCLIC QUINOLONES AND NAPHTHYRIDONES” (priority 2004, published 2009)
Converted amounts (≈) assume the structure as drawn. Counter-ions that a name gives are not always drawn. Like-named read-outs stand apart in the source and are kept apart here.

Tested on: pathogenic bacteria
Assay: MIC by microdilution broth method (NCCLS M7-A4), in vitro antibacterial activity
Format: cell-based
In short: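 Broth microdilution per NCCLS M7-A4: two-fold serial dilutions in cation-adjusted Mueller-Hinton broth, inoculum about 5×10^4 CFU/well. Trays incubated 16–20 h at 35 °C. MIC read by comparing growth against no-compound growth controls.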

[1] = Staphylococcus aureus, Organism A: Staphylococcus aureus OC4172, read-out: MIC
[2] = Streptococcus pneumoniae, ATCC49619, Organism E: Streptococcus pneumoniae ATCC 49619, read-out: MIC
[3] = Streptococcus pneumoniae, Organism B: fluoroquinolone-resistant clinical isolate of Streptococcus pneumoniae (QRDR amino acid substitutions)
[4] = Streptococcus pneumoniae, Organism C: fluoroquinolone-resistant clinical isolate of Streptococcus pneumoniae (QRDR amino acid substitutions)
[5] = Streptococcus pneumoniae, Organism D: fluoroquinolone-resistant clinical isolate of Streptococcus pneumoniae (QRDR amino acid substitutions)
[6] = Organism A: Staphylococcus aureus OC4172
[7] = Organism C: fluoroquinolone-resistant clinical isolate of Streptococcus pneumoniae (QRDR amino acid substitutions)
[8] = Organism E: Streptococcus pneumoniae ATCC 49619
[9] = Organism B: fluoroquinolone-resistant clinical isolate of Streptococcus pneumoniae (QRDR amino acid substitutions)
[10] = Organism D: fluoroquinolone-resistant clinical isolate of Streptococcus pneumoniae (QRDR amino acid substitutions)

## CN(CC(F)=C1CCN(c2c(F)cc3c(=O)c(C(=O)O)cn(C4CC4)c3c2OC(F)F)CC1)Cc1ccccc1 [Compound 207, 7-{4-[2-(Benzyl-methyl-amino)-1-fluoro-ethylidene]-piperidin-1-yl}-1-cyclopropyl-8-difluoromethoxy-6-fluoro-4-oxo-1,4-dihydro-quinoline-3-carboxylic acid]
[1]
  MIC: 1 µg/mL (≈ 1.79 µM)
[2]
  MIC: 4 µg/mL (≈ 7.15 µM)
[3]
  MIC: 8 µg/mL (≈ 14.3 µM)
[4]
  MIC: 8 µg/mL (≈ 14.3 µM)
[5]
  MIC: 2 µg/mL (≈ 3.57 µM)

## NCC(F)=C1CCN(c2cc3c(cc2F)c(=O)c(C(=O)O)cn3C2CC2)CC1 [Compound 208, 7-[4-(2-Amino-1-fluoro-ethylidene)-piperidin-1-yl]-1-cyclopropyl-6-fluoro-4-oxo-1,4-dihydro-quinoline-3-carboxylic acid]
[6]
  MIC: 0.06 µg/mL (≈ 0.154 µM)
[7]
  MIC: 2 µg/mL (≈ 5.14 µM)
[8]
  MIC: 0.25 µg/mL (≈ 0.642 µM)
[3]
  MIC: 0.25 µg/mL (≈ 0.642 µM)
[5]
  MIC: 0.25 µg/mL (≈ 0.642 µM)

## COc1c(N2CC(=C(Cl)CN)C2)ccc2c(=O)c(C(=O)O)cn(C3CC3)c12 [Compound 209, 7-[3-(2-Amino-1-chloro-ethylidene)-azetidin-1-yl]-1-cyclopropyl-8-methoxy-4-oxo-1,4-dihydro-quinoline-3-carboxylic acid]
[1]
  MIC: 0.12 µg/mL (≈ 0.308 µM)
[2]
  MIC: 2 µg/mL (≈ 5.13 µM)
[4]
  MIC: 8 µg/mL (≈ 20.5 µM)
[5]
  MIC: 16 µg/mL (≈ 41 µM)

## CC1COc2c(N3CCC(=CCN)C(O)C3)c(F)cc3c(=O)c(C(=O)O)cn1c23 (centres unmarked) [Compound 210, 9-[4-(2-Amino-ethylidene)-3-hydroxy-piperidin-1-yl]-8-fluoro-3-methyl-6-oxo-2,3-dihydro-6H-1-oxa-3a-aza-phenalene-5-carboxylic acid]
[1]
  MIC: 8 µg/mL (≈ 19.8 µM)
[2]
  MIC: > 16 µg/mL
[3]
  MIC: 16 µg/mL (≈ 39.7 µM)
[4]
  MIC: 16 µg/mL (≈ 39.7 µM)

## CC(CO)=C1CCN(c2c(F)cc3c(=O)c(C(=O)O)cn4c3c2OCC4C)CC1 (centres unmarked) [Compound 211, 8-Fluoro-9-[4-(2-hydroxy-1-methyl-ethylidene)-piperidin-1-yl]-3-methyl-6-oxo-2,3-dihydro-6H-1-oxa-3a-aza-phenalene-5-carboxylic acid]
[1]
  MIC: 0.03 µg/mL (≈ 0.0745 µM)
[2]
  MIC: 0.5 µg/mL (≈ 1.24 µM)
[3]
  MIC: 4 µg/mL (≈ 9.94 µM)
[4]
  MIC: 4 µg/mL (≈ 9.94 µM)

## COc1c(N2CCC(=CCN)CC2)c(F)cc2c(=O)c(C(=O)O)cn(C3CC3)c12 [Compound 212, 7-[4-(2-Amino-ethylidene)-piperidin-1-yl]-1-cyclopropyl-6-fluoro-8-methoxy-4-oxo-1,4-dihydro-quinoline-3-carboxylic acid]
[1]
  MIC: 0.06 µg/mL (≈ 0.149 µM)
[2]
  MIC: 0.12 µg/mL (≈ 0.299 µM)
[3]
  MIC: 1 µg/mL (≈ 2.49 µM)
[4]
  MIC: 2 µg/mL (≈ 4.98 µM)
[5]
  MIC: 2 µg/mL (≈ 4.98 µM)

## CNCC(F)=C1CCN(c2c(F)cc3c(=O)c(C(=O)O)cn(C4CC4)c3c2OC)CC1 [Compound 213, 1-Cyclopropyl-6-fluoro-7-[4-(1-fluoro-2-methylamino-ethylidene)-piperidin-1-yl]-8-methoxy-4-oxo-1,4-dihydro-quinoline-3-carboxylic acid]
[1]
  MIC: 0.12 µg/mL (≈ 0.277 µM)
[2]
  MIC: 0.5 µg/mL (≈ 1.15 µM)
[4]
  MIC: 2 µg/mL (≈ 4.61 µM)
[5]
  MIC: 2 µg/mL (≈ 4.61 µM)

## CCNCC(F)=C1CCN(c2c(F)cc3c(=O)c(C(=O)O)cn(C4CC4)c3c2OC)CC1 [Compound 214, 1-Cyclopropyl-7-[4-(2-ethylamino-1-fluoro-ethylidene)-piperidin-1-yl]-6-fluoro-8-methoxy-4-oxo-1,4-dihydro-quinoline-3-carboxylic acid]
[1]
  MIC: 0.06 µg/mL (≈ 0.134 µM)
[2]
  MIC: 0.25 µg/mL (≈ 0.559 µM)
[4]
  MIC: 1 µg/mL (≈ 2.23 µM)
[5]
  MIC: 1 µg/mL (≈ 2.23 µM)

## CNCC(Cl)=C1CCN(c2nc3c(cc2F)c(=O)c(C(=O)O)cn3C2CC2)CC1 [Compound 215, 7-[4-(1-Chloro-2-methylamino-ethylidene)-piperidin-1-yl]-1-cyclopropyl-6-fluoro-4-oxo-1,4-dihydro-[1,8]naphthyridine-3-carboxylic acid]
[6]
  MIC: 0.25 µg/mL (≈ 0.594 µM)
[9]
  MIC: 2 µg/mL (≈ 4.75 µM)
[2]
  MIC: 0.25 µg/mL (≈ 0.594 µM)
[4]
  MIC: 2 µg/mL (≈ 4.75 µM)
[5]
  MIC: 2 µg/mL (≈ 4.75 µM)

## CNCC(Cl)=C1CCN(c2nc3c(cc2F)c(=O)c(C(=O)O)cn3C2CC2)CC1 [Compound 216, 7-[4-(1-Chloro-2-methylamino-ethylidene)-piperidin-1-yl]-1-cyclopropyl-6-fluoro-4-oxo-1,4-dihydro-[1,8]naphthyridine-3-carboxylic acid]
[6]
  MIC: 0.06 µg/mL (≈ 0.143 µM)
[9]
  MIC: 0.12 µg/mL (≈ 0.285 µM)
[7]
  MIC: 2 µg/mL (≈ 4.75 µM)
[10]
  MIC: 1 µg/mL (≈ 2.38 µM)
[8]
  MIC: 0.25 µg/mL (≈ 0.594 µM)

## CNCC(C)=C1CCN(c2nc3c(cc2F)c(=O)c(C(=O)O)cn3C2CC2)CC1 [Compound 217, 1-Cyclopropyl-6-fluoro-7-[4-(1-methyl-2-methylamino-ethylidene)-piperidin-1-yl]-4-oxo-1,4-dihydro-[1,8]naphthyridine-3-carboxylic acid]
[6]
  MIC: 0.25 µg/mL (≈ 0.624 µM)
[7]
  MIC: 2 µg/mL (≈ 4.99 µM)
[10]
  MIC: 2 µg/mL (≈ 4.99 µM)
[8]
  MIC: 0.25 µg/mL (≈ 0.624 µM)

## CNCC(C)=C1CCN(c2cc3c(cc2F)c(=O)c(C(=O)O)cn3C2CC2)CC1 [Compound 218, 1-Cyclopropyl-6-fluoro-7-[4-(1-methyl-2-methylamino-ethylidene)-piperidin-1-yl]-4-oxo-1,4-dihydro-quinoline-3-carboxylic acid]
[6]
  MIC: 0.12 µg/mL (≈ 0.3 µM)
[7]
  MIC: 2 µg/mL (≈ 5.01 µM)
[2]
  MIC: 0.25 µg/mL (≈ 0.626 µM)
[5]
  MIC: 2 µg/mL (≈ 5.01 µM)

## CNCC(C)=C1CCN(c2cc3c(cc2F)c(=O)c(C(=O)O)cn3C2CC2)CC1 [Compound 219, 1-Cyclopropyl-6-fluoro-7-[4-(1-methyl-2-methylamino-ethylidene)-piperidin-1-yl]-4-oxo-1,4-dihydro-quinoline-3-carboxylic acid]
[6]
  MIC: 0.5 µg/mL (≈ 1.25 µM)
[7]
  MIC: 8 µg/mL (≈ 20 µM)
[10]
  MIC: 4 µg/mL (≈ 10 µM)
[8]
  MIC: 0.5 µg/mL (≈ 1.25 µM)
[3]
  MIC: 8 µg/mL (≈ 20 µM)

## CNCC(C)=C1CCN(c2c(F)cc3c(=O)c(C(=O)O)cn(C4CC4)c3c2OC(F)F)CC1 [Compound 220, 1-Cyclopropyl-8-difluoromethoxy-6-fluoro-7-[4-(1-methyl-2-methylamino-ethylidene)-piperidin-1-yl]-4-oxo-1,4-dihydro-quinoline-3-carboxylic acid]
[6]
  MIC: 0.12 µg/mL (≈ 0.258 µM)
[7]
  MIC: 4 µg/mL (≈ 8.59 µM)
[10]
  MIC: 0.5 µg/mL (≈ 1.07 µM)
[8]
  MIC: 0.5 µg/mL (≈ 1.07 µM)
[3]
  MIC: 2 µg/mL (≈ 4.3 µM)

## CNCC=C1CCN(c2c(F)cc3c(=O)c(C(=O)O)cn(C4CC4)c3c2OC)CC1 [Compound 221, 1-Cyclopropyl-6-fluoro-8-methoxy-7-[4-(2-methylamino-ethylidene)-piperidin-1-yl]-4-oxo-1,4-dihydro-quinoline-3-carboxylic Acid Trifluoroacetic Acid Salt]
[3]
  MIC: 2 µg/mL
[4]
  MIC: 4 µg/mL
[5]
  MIC: 4 µg/mL

## CC(C)NCC(F)=C1CCN(c2nc3c(cc2F)c(=O)c(C(=O)O)cn3C2CC2)CC1 [Compound 247, 1-Cyclopropyl-6-fluoro-7-[4-(1-fluoro-2-isopropylamino-ethylidene)-piperidin-1-yl]-4-oxo-1,4-dihydro-[1,8]naphthyridine-3-carboxylic acid]
[1]
  MIC: 0.5 µg/mL (≈ 1.16 µM)
[2]
  MIC: 0.5 µg/mL (≈ 1.16 µM)
[4]
  MIC: 8 µg/mL (≈ 18.5 µM)
[5]
  MIC: 2 µg/mL (≈ 4.62 µM)

## CC(C)NCC(Cl)=C1CCN(c2cc3c(cc2F)c(=O)c(C(=O)O)cn3C2CC2)CC1 [Compound 248, 7-[4-(1-Chloro-2-isopropylamino-ethylidene)-piperidin-1-yl]-1-cyclopropyl-6-fluoro-4-oxo-1,4-dihydro-quinoline-3-carboxylic acid]
[1]
  MIC: 0.5 µg/mL (≈ 1.12 µM)
[2]
  MIC: 2 µg/mL (≈ 4.46 µM)
[4]
  MIC: 16 µg/mL (≈ 35.7 µM)
[5]
  MIC: 4 µg/mL (≈ 8.93 µM)

## CC(C)NCC(F)=C1CCN(c2cc3c(cc2F)c(=O)c(C(=O)O)cn3C2CC2)CC1 [Compound 249, 1-Cyclopropyl-6-fluoro-7-[4-(1-fluoro-2-isopropylamino-ethylidene)-piperidin-1-yl]-4-oxo-1,4-dihydro-quinoline-3-carboxylic acid]
[1]
  MIC: 1 µg/mL (≈ 2.32 µM)
[2]
  MIC: 2 µg/mL (≈ 4.64 µM)
[4]
  MIC: 16 µg/mL (≈ 37.1 µM)
[5]
  MIC: 4 µg/mL (≈ 9.27 µM)

## CC(C)NCC(Cl)=C1CCN(c2c(F)cc3c(=O)c(C(=O)O)cn(C4CC4)c3c2OC(F)F)CC1 [Compound 250, 7-[4-(1-Chloro-2-isopropylamino-ethylidene)-piperidin-1-yl]-1-cyclopropyl-8-difluoromethoxy-6-fluoro-4-oxo-1,4-dihydro-quinoline-3-carboxylic acid]
[1]
  MIC: 0.25 µg/mL (≈ 0.486 µM)
[2]
  MIC: 0.5 µg/mL (≈ 0.973 µM)
[4]
  MIC: 8 µg/mL (≈ 15.6 µM)
[5]
  MIC: 0.5 µg/mL (≈ 0.973 µM)

## CC(C)NCC(F)=C1CCN(c2c(F)cc3c(=O)c(C(=O)O)cn(C4CC4)c3c2OC(F)F)CC1 [Compound 251, 1-Cyclopropyl-8-difluoromethoxy-6-fluoro-7-[4-(1-fluoro-2-isopropylamino-ethylidene)-piperidin-1-yl]-4-oxo-1,4-dihydro-quinoline-3-carboxylic acid]
[1]
  MIC: 0.5 µg/mL (≈ 1.01 µM)
[2]
  MIC: 1 µg/mL (≈ 2.01 µM)
[4]
  MIC: 16 µg/mL (≈ 32.2 µM)
[5]
  MIC: > 2 µg/mL

## COc1c(N2CCC(=C(F)CNC(C)C)CC2)c(F)cc2c(=O)c(C(=O)O)cn(C3CC3)c12 [Compound 252, 1-Cyclopropyl-6-fluoro-7-[4-(i-fluoro-2-isopropylamino-ethylidene)-piperidin-1-yl]-8-methoxy-4-oxo-1,4-dihydro-quinoline-3-carboxylic Acid trifluoroacetic acid salt]
[1]
  MIC: 0.5 µg/mL
[2]
  MIC: 1 µg/mL
[4]
  MIC: 8 µg/mL
[5]
  MIC: 4 µg/mL

## NC/C(F)=C1/CCCN(c2nc3c(cc2F)c(=O)c(C(=O)O)cn3C2CC2)C1 [Compound 253, (E)-7-[3-(2-Amino-1-fluoro-ethylidene)-piperidin-1-yl]-1-cyclopropyl-6-fluoro-4-oxo-1,4-dihydro-[1,8]naphthyridine-3-carboxylic acid trifluoroacetic acid salt]
Staphylococcus aureus, Organism A: Staphylococcus aureus OC4172
  MIC: 0.06 µg/mL
Streptococcus pneumoniae, ATCC49619, Organism E: Streptococcus pneumoniae ATCC 49619
  MIC: 0.5 µg/mL
[3]
  MIC: 4 µg/mL
[4]
  MIC: > 16 µg/mL
[5]
  MIC: 4 µg/mL
